# Results reported in US20250375430A1, “USE OF DIHYDROBERBERINE TO PROMOTE RECRUITMENT AND ACTIVATION OF BROWN ADIPOSE TISSUES” (NANJING NUTRABUILDING BIO-TECH CO., LTD., priority 2023, published 2025).
# How the values were obtained:
# C57BL/6J mice [1] = assay: Plasma TC, TG, LDL, VLDL measured with kits in high-fat diet mice; format: in vivo
# Protocol: Six-week-old male C57BL/6J mice were housed in a temperature-and relative humidity-controlled room (22±2° C., 55±5%) with a 12 h light-dark cycle and free access to food and water. For chronic anti-obesity studies, all mice were fed the high-fat diet (HFD, 60% calories from fat, 20% calories from protein, 20% calories from carbohydrate) for 8 weeks. At 14 weeks of age, all mice were randomly divided into 3 groups of 10 animals: (1) non-supplement group (Con Food only, Group 1); (2) DHB supplement group (DHB+Food. 50 mg/kg, Group 2); (3) DHB supplement group (DHB+Food, 100 mg/kg, Group 3). After an eight-week induction, the mice in group I were intraperitoneal injection (i.p.) administrated with normal saline between 9:30 and 11:30 am, and food and water were given ad libitum. The mice in group 2 and group 3 were intraperitoneal injection (i.p.) administrated with DHB in normal saline solution daily for 6 weeks between 9:30 and 11:30 am, and food and water were given ad libitum. The total experimental time is 14 weeks, including two periods: an eight-week induction period and a subsequent six-week supplement period. Plasma total cholesterol (TC), triglyceride (TG), low-density lipoprotein (LDL), and very low-density lipoprotein (VLDL) were measured using corresponding kits according to the manufacturers' instructions.
# UCP1 and PGC-1α = assay: mRNA levels of brown fat-enriched genes in adipose tissues (inguinal WAT) by real-time PCR; format: in vivo, mice
# Protocol: Six-week-old male C57BL/6J mice were housed in a temperature-and relative humidity-controlled room (22±2° C., 55±5%) with a 12 h light-dark cycle and free access to food and water. For chronic anti-obesity studies, all mice were fed the high-fat diet (HFD, 60% calories from fat, 20% calories from protein, 20% calories from carbohydrate) for 8 weeks.
# At 14 weeks of age, all mice were randomly divided into 3 groups of 10 animals: (1) non-supplement group (Con Food only, Group 1); (2) DHB supplement group (DHB+Food. 50 mg/kg, Group 2); (3) DHB supplement group (DHB+Food, 100 mg/kg, Group 3).
# The mice in group 2 and group 3 were intraperitoneal injection (i.p.) administrated with DHB in normal saline solution daily for 6 weeks between 9:30 and 11:30 am, and food and water were given ad libitum.
# At the end of the study, all mice were anesthetized with chloral hydrate, all relevant tissues like inguinal and perirenal adipose were dissected, weighed, immediately frozen in liquid nitrogen, and stored at −80° C.
# The mRNA levels of brown fat-enriched genes such as UCP1 and PGC-1α from adipose tissues (like inguinal WAT) were determined by real-time PCR analysis.
# C57BL/6J mice [2] = assay: i.p. glucose tolerance test (GTT) in obese mice; format: in vivo; settings: 4th week of supplementation; glucose 0.75 g/kg i.p.; 0-120 min; especially higher dose; FIG. 5
# Protocol: (§1) Six-week-old male C57BL/6J mice were housed in a temperature-and relative humidity-controlled room (22±2° C., 55±5%) with a 12 h light-dark cycle and free access to food and water. For chronic anti-obesity studies, all mice were fed the high-fat diet (HFD, 60% calories from fat, 20% calories from protein, 20% calories from carbohydrate) for 8 weeks. At 14 weeks of age, all mice were randomly divided into 3 groups of 10 animals: (1) non-supplement group (Con Food only, Group 1); (2) DHB supplement group (DHB+Food. 50 mg/kg, Group 2); (3) DHB supplement group (DHB+Food, 100 mg/kg, Group 3). The mice in group 2 and group 3 were intraperitoneal injection (i.p.) administrated with DHB in normal saline solution daily for 6 weeks between 9:30 and 11:30 am, and food and water were given ad libitum.
# C57BL/6J mice [3] = assay: Rectal temperature in the cold room; format: in vivo; settings: cold room 4-8° C.; 9th and 14th week; FIG. 15
# Protocol: as §1
# [4] = in vitro; cited from earlier work
# BAT = assay: 18F-FDG uptake in BAT by PET/CT; format: in vivo, mice; settings: PET/CT 60 min after tracer; fasted overnight; FIG. 14
# Protocol: as §1, with “libitum. […] [formula]” for “libitum.”
# C57BL/6J mice [5] = assay: Body weight and fat mass by nuclear magnetic resonance body composition analyzer; format: in vivo
# Protocol: as §1, with “libitum. The body weight and fat mass of all mice were performed by the nuclear magnetic resonance body composition analyzer by Nuclear Magnetic Resonance Body Composition Analyzer in accordance with manufacturer's instruction. The body weight and fat mass were tested weekly (9-14 weeks) and at 9th and 14th week before supplementation and feeding, respectively.” for “libitum.”
# C57BL/6J mice [6] = assay: Energy expenditure by comprehensive lab animal monitoring system (CLAMS), indirect calorimeter; format: in vivo
# Protocol: Six-week-old male C57BL/6J mice were housed in a temperature-and relative humidity-controlled room (22±2° C., 55±5%) with a 12 h light-dark cycle and free access to food and water. For chronic anti-obesity studies, all mice were fed the high-fat diet (HFD, 60% calories from fat, 20% calories from protein, 20% calories from carbohydrate) for 8 weeks. At 14 weeks of age, all mice were randomly divided into 3 groups of 10 animals: (1) non-supplement group (Con Food only, Group 1); (2) DHB supplement group (DHB+Food. 50 mg/kg, Group 2); (3) DHB supplement group (DHB+Food, 100 mg/kg, Group 3). The mice in group 2 and group 3 were intraperitoneal injection (i.p.) administrated with DHB in normal saline solution daily for 6 weeks between 9:30 and 11:30 am, and food and water were given ad libitum. A key factor for controlling energy homoeostasis is the balance between caloric intake and energy expenditure. We analyzed the actions of DHB on energy expenditure using comprehensive lab animal monitoring system (CLAMS). Metabolic analysis was conducted between 8:30 am and 7:30 pm at the last week of experiment to identify […]. O2 consumption, CO2 production, and locomotor activity were measured using a 16-chamber indirect calorimeter. The mice were acclimated to the system for 20-24 h, and measurement of VO2 and VCO2 was performed during the next 24 h. The mice were maintained at 24° C. under a 12 h light/dark cycle. Food and water were available ad libitum. Voluntary activity was derived from the x-axis beam breaks monitored every 15 min. Heat production (energy expenditure) was calculated using the following equation: [formula] where heat is measured in kcal h^−1, VO2 is measured in litres kg^−1 h^−1 and body weight is measured in kg.
# [7] = mice, including mice lacking intestinal bacteria needed to break down BBR; cited from earlier work
# UCP1, PRDM16 and PGC-1α = assay: Expression levels of UCP1, PRDM16 and PGC-1α (FIG. 10); format: in vivo; settings: relative to mice without DHB
# Protocol: as §1
# C57BL/6J mice [8] = assay: Insulin tolerance test (ITT); format: in vivo; settings: FIG. 6
# Protocol: as §1, with “libitum. An insulin tolerance test (ITT) was performed by using a glucose analyzer in the 6-h fasting mice in the 5th week of the supplementation. The glucose concentrations were measured by venous bleeding at 0, 15, 30, 60 and 120 min after an i.p. injection of human insulin at 1 U/kg.” for “libitum.”
# brown adipocyte = settings: by increasing transcription of PRDM16 via AMPK activation and PGC-1α recruitment; cited from earlier work
# obese db/db mice = settings: cited from earlier work
# [9] = 100 mg/kg compared with 50 mg/kg
# [10] = adipose tissue (inguinal WAT), real-time PCR, relative to mice without DHB, FIG. 9
structure (smiles),measurement,setting,value
"COc1ccc2c(c1OC)CN1CCc3cc4c(cc3C1=C2)OCO4 [DHB, dihydroberberine]","improving biomarkers related to lipid mobilization, higher dose than lower dose",C57BL/6J mice [1]; [9],greater effects
same,TG level,"C57BL/6J mice [1]; plasma, HFD mice, DHB i.p. 50 or 100 mg/kg daily for 6 weeks, relative to mice without DHB, FIG. 1",lower levels
same,TC level,"C57BL/6J mice [1]; plasma, HFD mice, DHB i.p. 50 or 100 mg/kg daily for 6 weeks, relative to mice without DHB, FIG. 2",lower levels
same,LDL level,"C57BL/6J mice [1]; plasma, HFD mice, DHB i.p. 50 or 100 mg/kg daily for 6 weeks, relative to mice without DHB, FIG. 3",lower levels
same,VLDL level,"C57BL/6J mice [1]; plasma, HFD mice, DHB i.p. 50 or 100 mg/kg daily for 6 weeks, relative to mice without DHB, FIG. 4",lower levels
same,"browning of white fat, higher dose than lower dose",UCP1 and PGC-1α; [9],greater effects
same,PGC-1α mRNA level,UCP1 and PGC-1α; [10],higher levels
same,UCP1 mRNA level,UCP1 and PGC-1α; [10],higher levels
same,tolerance to a glucose load (i.p. glucose tolerance test),C57BL/6J mice [2],better tolerance to a glucose load
same,rectal temperature,C57BL/6J mice [3],higher
same,intestinal absorption rate relative to BBR,[4],five times higher
same,total accumulated amount of 18F-FDG in BAT,BAT,increase the accumulated amount
same,body weight (weight gain),"C57BL/6J mice [5]; group 2 and 3 (50 and 100 mg/kg), 6 weeks of treatment, week 9 to 14, FIG. 7",obviously protected from weight gain
same,fat mass percentage (fat accumulation),"C57BL/6J mice [5]; group 3 (100 mg/kg), 9th and 14th week, FIG. 8",inhibited fat accumulation better
same,body fat percentage,C57BL/6J mice [5]; relative to mice without DHB supplementation,decreases body fat percentage
same,"BAT thermogenesis and energy expenditure, higher dose than lower dose",C57BL/6J mice [6]; [9],greater effects
same,BAT thermogenesis and energy expenditure,"C57BL/6J mice [6]; 24 h period, FIG. 13",beneficial effects
same,oxygen consumption (VO2) rate,"C57BL/6J mice [6]; through a 12-h light/dark cycle, 24 h period, 24° C., FIG. 11",markedly higher
same,carbon dioxide production (VCO2) rate,"C57BL/6J mice [6]; through a 12-h light/dark cycle, 24 h period, 24° C., FIG. 12",markedly higher
same,absorption relative to BBR,[7],better absorbed
same,expression of PGC-1α,"UCP1, PRDM16 and PGC-1α",increase the expression
same,expression of PRDM16,"UCP1, PRDM16 and PGC-1α",increase the expression
same,expression of UCP1,"UCP1, PRDM16 and PGC-1α",increase the expression
same,"insulin tolerance test result, higher-dose group",C57BL/6J mice [8]; [9],better result
same,insulin tolerance test result,"C57BL/6J mice [8]; 5th week of supplementation, 6-h fasting, human insulin 1 U/kg i.p.",ameliorated glucose tolerance
"COc1ccc2cc3[n+](cc2c1OC)CCc1cc2c(cc1-3)OCO2 [BBR, berberine]",brown adipocyte differentiation and BAT thermogenesis,brown adipocyte,promote
same,energy expenditure and adaptive thermogenesis,obese db/db mice,increase
same,thermogenic program in BAT,obese db/db mice,promote the thermogenic program in BAT
same,weight gain,obese db/db mice,reduce weight gain
